The values below come from US20230138851A1, “NOVEL ALKYNE DERIVATIVES” (CARNA BIOSCIENCES, INC., priority 2020, published 2023).

By IC50 is commonly meant the concentration that gives 50% inhibition.

Holding throughout (type): biochemical
Assay [1] has as its target T1, DYRK1A (Homo sapiens, UniProt Q13627).
T1 construct: purchased Carna Biosciences, Inc. 04-130
Put plainly: Inhibition test on activity of DYRK family, mobility shift assay (MSA), DYRK1A. Conditions: ATP 100 μM, FITC-labeled DYRKtide peptide substrate, room temperature 1 hour; for IC50: read-out: Inhibitory Activity 1a (IC50 against DYRK1A). The method, then: (§1) [Inhibition Test on Activity of DYRK Family (DYRK1A, DYRK1B, DYRK2, and […])]
(§2) (Method for Measuring Kinase Activity)
(§3) The kinase activity was measured by mobility shift assay (MSA) method using QuickScout Screening Assist™ MSA (commercially available kit manufactured by Carna Biosciences, Inc.). The substrate of the kinase reaction used was an FITC-labeled DYRKtide peptide included in the kit. An assay buffer [20 mM HEPES, 0.01% Triton X-100™, 2 mM dithiothreitol, pH 7.5] was used to create a substrate mixture solution with a substrate (4 μM), MgCl2 (20 mM), and ATP (DYRK1A: 100 μM; DYRK1B: 200 μM; DYRK2: 40 μM; and DYRK3: 20 μM). In addition, kinases (DYRK1A: manufactured by Carna Biosciences, Inc., Cat. No. 04-130; DYRK1B: manufactured by Carna Biosciences, Inc., Cat. No. 04-131; DYRK2; manufactured by Carna Biosciences, Inc., Cat. No. 04-132; and DYRK3; manufactured by Carna Biosciences, Inc., Cat. No. 04-133) were diluted with the assay buffer to prepare enzyme solutions (DYRK1A: 0.2 ng/μL; DYRK1B: 0.08 ng/μL; DYRK2: 0.04 ng/μL; and DYRK3: 0.25 ng/μL). The 10 mM solution of the test compound in DMSO was further diluted with DMSO to 10 levels of the concentration (0.00003 mM, 0.0001 mM, 0.0003 mM, 0.001 mM, 0.003 mM, 0.01 mM, 0.03 mM, 0.1 mM, 0.3 mM, and 1 mM), each of which was subjected to 25-fold dilution with the assay buffer to obtain a drug solution (4% DMSO solution). 5 μL of the drug solution or a control solution (4% DMSO-assay buffer), 5 μL of the substrate mixture solution, and 10 μL of the enzyme solution were mixed in the wells of a polypropylene 384-well plate and allowed to react at room temperature for 1 hour, and then the reaction was quenched by adding 60 μL of the termination buffer included in the kit. Subsequently, the quantities of the substrates (S) and the phosphorylated substrate (P) in the reaction solution were measured using LabChip EZ Reader II system (manufactured by Caliper Life Sciences) according to the protocol of the assay kit.
(§4) (Method for Evaluating Inhibitory Activity)
(§5) The heights of the peaks of the “substrate” and the “phosphorylated substrate” were expressed as S and P, respectively, and a blank containing the assay buffer instead of the enzyme solution was also measured.
(§6) The inhibition rate (%) of the test compound was calculated according to the following equation:
(§7) Inhibition rate (%)=(1−(C−A)/(B−A))×100
(§8) wherein, A, B, and C represent P/(P+S) of the blank well, P/(P+S) of the control solution well, and P/(P+S) of the compound-containing well, respectively.
(§9) The IC50 value was calculated via a regression analysis of the inhibition rate and the test compound concentration (logarithmic value).
(§10) The inhibiting activities of representative compounds of the present invention are shown against DYRK1A, DYRK1B, DYRK2, and DYRK3 in Tables 7 and 8. The kinase activity inhibitory effect was indicated with the mark *** at an IC50 value of less than 0.01 μM; the mark ** at 0.01 μM or more and less than 0.1 μM; the mark * at 0.1 μM or more and less than 1 μM; and the mark — at 1 μM or more (N.D. indicates not measured).

Assay [2] has as its target T2, DYRK2 (Homo sapiens, UniProt Q92630).
T2 construct: purchased Carna Biosciences, Inc. 04-132
T2 sequence (Q92630 1-601): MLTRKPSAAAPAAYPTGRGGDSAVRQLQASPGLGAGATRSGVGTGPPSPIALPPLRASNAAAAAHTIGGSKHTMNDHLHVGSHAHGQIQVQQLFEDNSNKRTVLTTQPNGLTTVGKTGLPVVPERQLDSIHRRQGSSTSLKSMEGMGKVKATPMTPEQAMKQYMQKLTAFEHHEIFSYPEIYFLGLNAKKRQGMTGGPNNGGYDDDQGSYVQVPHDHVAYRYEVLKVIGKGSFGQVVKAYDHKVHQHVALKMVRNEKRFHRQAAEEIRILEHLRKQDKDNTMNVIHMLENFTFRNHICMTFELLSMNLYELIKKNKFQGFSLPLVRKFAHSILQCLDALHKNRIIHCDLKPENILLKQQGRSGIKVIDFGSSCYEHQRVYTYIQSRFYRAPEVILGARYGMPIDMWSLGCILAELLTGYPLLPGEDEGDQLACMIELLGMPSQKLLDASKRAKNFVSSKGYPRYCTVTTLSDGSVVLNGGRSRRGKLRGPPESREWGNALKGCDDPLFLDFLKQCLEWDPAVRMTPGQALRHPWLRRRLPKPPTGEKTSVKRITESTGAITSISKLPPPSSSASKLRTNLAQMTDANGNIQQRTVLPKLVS
The experiment in a line: Inhibition test on activity of DYRK family, mobility shift assay (MSA), DYRK2. Conditions: ATP 40 μM, FITC-labeled DYRKtide peptide substrate, room temperature 1 hour; for IC50: read-out: Inhibitory Activity 2 (IC50 against DYRK2). As to the method:
as §1, §2, §3, §4, §5, §6, §7, §8, §9, §10

Assay [3] has as its target T3, DYRK3 (Homo sapiens, UniProt O43781).
T3 construct: purchased Carna Biosciences, Inc. 04-133
T3 sequence (O43781 1-588): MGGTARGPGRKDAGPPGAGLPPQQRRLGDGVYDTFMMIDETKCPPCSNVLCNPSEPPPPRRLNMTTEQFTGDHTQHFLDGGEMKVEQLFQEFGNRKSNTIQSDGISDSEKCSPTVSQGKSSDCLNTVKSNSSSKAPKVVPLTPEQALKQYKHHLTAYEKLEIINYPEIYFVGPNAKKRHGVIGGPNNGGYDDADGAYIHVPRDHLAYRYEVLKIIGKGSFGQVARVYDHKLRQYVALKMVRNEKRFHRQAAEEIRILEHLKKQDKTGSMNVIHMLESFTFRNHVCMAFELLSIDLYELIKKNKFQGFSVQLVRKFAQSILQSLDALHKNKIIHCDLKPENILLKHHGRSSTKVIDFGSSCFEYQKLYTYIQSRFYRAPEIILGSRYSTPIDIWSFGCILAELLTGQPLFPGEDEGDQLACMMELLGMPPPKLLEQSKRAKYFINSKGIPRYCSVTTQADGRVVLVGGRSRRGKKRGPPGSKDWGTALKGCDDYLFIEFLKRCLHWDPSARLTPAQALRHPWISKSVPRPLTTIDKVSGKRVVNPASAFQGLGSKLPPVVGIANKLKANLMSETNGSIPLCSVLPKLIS
Put plainly: Inhibition test on activity of DYRK family, mobility shift assay (MSA), DYRK3. Conditions: ATP 20 μM, FITC-labeled DYRKtide peptide substrate, room temperature 1 hour; for IC50: read-out: Inhibitory Activity 3 (IC50 against DYRK3). The method, then: as §1, §2, §3, §4, §5, §6, §7, §8, §9, §10

In the case of `CC#CC1CNC(=O)N1c1nc2c3c(ccc2s1)OCCO3` (single isomer, unassigned) [Example 59, 1-(7,8-dihydro-[1,4]dioxino[2′,3′:5,6]benz[1,2-d]thiazol-2-yl)-5-(prop-1-yn-1-yl)imidazolidin-2-one], the IC50 in assay [1], in assay [2] and in assay [3] was no less than 1000 nM each time.

Regarding `[2H]C1([2H])Oc2ccc3sc(N4C(=O)NC[C@H]4C#CC)nc3c2O1` [Example 62, (R)-1-([1,3]dioxolo[4′,5′:5,6]benz[1,2-d]thiazol-7-yl-2,2-d2)-5-(prop-1-yn-1-yl)imidazolidin-2-one], the “Inhibitory Activity 1a (IC50 against DYRK1A)” value (“Inhibitory Activity 1a” for short) in assay [1] is reported as “* * *”. The concentration for half-maximal inhibition (IC50) in assay [2] is 100 to 1000 nM. The “Inhibitory Activity 3 (IC50 against DYRK3)” value in assay [3] is “* *”.

Consider `CC#CC1CNC(=O)N1c1nc2c3c(ccc2s1)OCC3` (single isomer, unassigned) [Example 9, 1-(7,8-dihydrobenzofuro[4,5-d]thiazol-2-yl)-5-(prop-1-yn-1-yl)imidazolidin-2-one], for which the “Inhibitory Activity 1a” value in assay [1] is on record as “* * *”. Besides, the “Inhibitory Activity 2 (IC50 against DYRK2)” value in assay [2] is listed as “* *”. Moreover, the “Inhibitory Activity 3 (IC50 against DYRK3)” value in assay [3] is recorded as “* *”.

`CC#CC1CNC(=O)N1c1nc2c3c(ccc2s1)OCCN3C1CC1` (racemic) [Example 45, (RS)-1-(9-cyclopropyl-8,9-dihydro-7H-thiazolo[4′,5′:3,4]benz[1,2-b][1,4]oxazin-2-yl)-5-(prop-1-yn-1-yl)imidazolidin-2-one]: the “Inhibitory Activity 1a” value in assay [1] is on record as “* *”. The IC50 in assay [2] and in assay [3] was 100 to 1000 nM throughout.

On to `CC#CC1CNC(=O)N1c1nc2c3c(ccc2s1)OCC(C)N3C` (single isomer, unassigned) [Example 49, 1-(-8,9-dimethyl-8,9-dihydro-7H-thiazolo[4′,5′:3,4]benz[1,2-b][1,4]oxazin-2-yl)-5-(prop-1-yn-1-yl)imidazolidin-2-one], for which the “Inhibitory Activity 1a” value in assay [1] was “* * *”. For the same compound, the results for the IC50 in assay [2] and in assay [3] were no less than 1000 nM and 100 to 1000 nM, respectively.

For `CC#CC1CNC(=O)N1c1nc2c(ccc3ocnc32)s1` (single isomer, unassigned) [Example 52, 5-(prop-1-yn-1-yl)-1-(thiazolo[5′,4′:5,6]benz[1,2-d]oxazol-7-yl)imidazolidin-2-one], the “Inhibitory Activity 1a” value in assay [1] was “* * *”. The half-maximal inhibitory concentration (IC50) in assay [2] was no less than 1000 nM; in assay [3], 100 to 1000 nM.

Turning to `CC#C[C@@H]1[C@H](CO)NC(=O)N1c1nc2c3c(ccc2s1)OCCO3` (relative stereo) [Example 64, cis-1-(7,8-dihydro-[1,4]dioxino[2′,3′:5,6]benz[1,2-d]thiazol-2-yl)-4-(hydroxymethyl)-5-(prop-1-yn-1-yl)imidazolidin-2-one], in assay [1], the “Inhibitory Activity 1a” value is recorded as “* * *”. For the same compound, the IC50 in assay [2] and in assay [3] was 100 to 1000 nM throughout.

Take `CC#C[C@H]1[C@H](CF)NC(=O)N1c1nc2c3c(ccc2s1)OCC3` (single isomer, unassigned) [Example 78, trans-1-(7,8-dihydrobenzofuro[4,5-d]thiazol-2-yl)-4-(fluoromethyl)-5-(prop-1-yn-1-yl)imidazolidin-2-one]: the values for the IC50 in assay [1] and in assay [3] were less than 10 nM and 100 to 1000 nM, respectively. For the same compound, the “Inhibitory Activity 2 (IC50 against DYRK2)” value in assay [2] was “* *”.

As for `CC#C[C@H]1[C@H](CO)NC(=O)N1c1nc2c3c(ccc2s1)OCC3` (relative stereo) [Example 61, trans-1-(7,8-dihydrobenzofuro[4,5-d]thiazol-2-yl)-4-(hydroxymethyl)-5-(prop-1-yn-1-yl)imidazolidin-2-one], the “Inhibitory Activity 1a” value in assay [1] is given as “* * *”. For the same compound, the IC50 in assay [2] and in assay [3] was 100 to 1000 nM in each case.

Turning to `CC#CC1CNC(=O)N1c1nc2c3c(ccc2s1)OCCN3S(C)(=O)=O` (racemic) [Example 47, (RS)-1-[9-(methylsulfonyl)-8,9-dihydro-7H-thiazolo[4′,5′:3,4]benz[1,2-b][1,4]oxazin-2-yl]-5-(prop-1-yn-1-yl)imidazolidin-2-one], the “Inhibitory Activity 1a” value in assay [1] is on record as “* *”. For the same compound, the concentration for half-maximal inhibition (IC50) in assay [2] was no less than 1000 nM; in assay [3] it was 100 to 1000 nM.

For `O=C1NCC(C#CC2CC2)N1c1nc2c3c(ccc2s1)OCC3` (racemic) [Example 21, (RS)-5-(cyclopropylethynyl)-1-(7,8-dihydrobenzofuro[4,5-d]thiazol-2-yl)imidazolidin-2-one], the “Inhibitory Activity 1a” value in assay [1] is recorded as “* * *”. The values for the half-inhibitory concentration (IC50) in assay [2] and in assay [3] were no less than 1000 nM and 100 to 1000 nM, respectively.

On to `CC#CC1CNC(=O)N1c1nc2c3c(ccc2s1)OCCO3` (single isomer, unassigned) [Example 58, 1-(7,8-dihydro-[1,4]dioxino[2′,3′:5,6]benz[1,2-d]thiazol-2-yl)-5-(prop-1-yn-1-yl)imidazolidin-2-one], for which the “Inhibitory Activity 1a” value in assay [1] is listed as “* * *”. In assay [2], the IC50 is 100 to 1000 nM. Further, in assay [3], the “Inhibitory Activity 3 (IC50 against DYRK3)” value is given as “* *”.

Take `CC#CC1CNC(=O)N1c1nc2c3c(ccc2s1)OCCO3` (racemic) [Example 55, (RS)-1-(7,8-dihydro-[1,4]dioxyno[2′,3′:5,6]benzo[1,2-d]thiazol-2-yl)-5-(prop-1-yn-1-yl)imidazolidin-2-one]: the “Inhibitory Activity 1a” value in assay [1] is “* * *”. Also, the IC50 in assay [2] and in assay [3] was 100 to 1000 nM in each case.
